“Also recorded” adds a separate entry of the source. Read-outs that look alike come from different tables or passages of the source.
Assays:
[1] = tested on: breast (MCF-7) and (LS-174T) colon cancer cell lines; test: growth inhibition of breast (MCF-7) and colon (LS-174T) cancer cell lines; assay type: cell-based, human; conditions: 50 micromolar
[2] = tested on: R^I cAMP receptor protein (MDA-MB-231); test: photoaffinity labelling of R^I cAMP receptor protein, MDA-MB-231; assay type: cell-based, human; conditions: 1 mM, 3 days; control 1.0
Method: (§1) M is marker proteins of known molecular weight.
(§2) The incubations were carried out at 23° C. for 60 minutes in 96-well immunoplates. The reaction mixtures were then irradiated for 30 seconds at 254 nm, placing a Mineralite UVS-11 hand lamp directly onto the plate. The samples were mixed with 25 microliters of 3× sample buffer (3% SDS, 15% beta-mercaptoethanol, 30 mM Tris, 30% glycerol, 1% bromophenol blue saturated solution), boiled for 3 minutes, and centrifuged at 700×g for five minutes. The samples containing 50-100 micrograms of protein were subjected to 0.05% SDS-12% PAGE. The gels were fixed, dried, and exposed to X-ray films overnight. The protein concentrations were determined by the method of Lowry et al., (J. Biol. Chem. 193: 265-275, 1951) with bovine serum albumin as standard.
(§3) The levels of the receptor proteins are expressed relative to the R^I level in the untreated control cells of MDA-MB-231 and LS-174T, which are each set equal to 1.0 O.D.; the scale was expanded to differentiate the lower intensity bands.

[3] = tested on: R^II cAMP receptor protein (MDA-MB-231); test: photoaffinity labelling of R^II cAMP receptor protein, MDA-MB-231; assay type: cell-based, human; conditions: 1 mM, 3 days; relative to control R^I
Method: as §1, §2, §3

[4] = tested on: R^I cAMP receptor protein (LS-174T); test: photoaffinity labelling of R^I cAMP receptor protein, LS-174T; assay type: cell-based, human; conditions: 1 mM, 3 days; control 1.0
Method: as §1, §2, §3

[5] = tested on: R^II cAMP receptor protein (LS-174T); test: photoaffinity labelling of R^II cAMP receptor protein, LS-174T; assay type: cell-based, human; conditions: 1 mM, 3 days; relative to control R^I
Method: as §1, §2, §3

MDA-MB-231 = test: growth of MDA-MB-231 cells; assay type: cell-based; conditions: Homo sapiens, MDA-MB-231, 72 h; 1 mM, 3 days
Method: as §1
(§4) All breast cancer cell lines were grown in IMEM supplemented with 10% fetal bovine serum, 20 mM HEPES, penicillin-streptomycin, and extra glutamine. Colon carcinoma cell lines were grown in EMEM supplemented with 10% FBS, EMEM, NEAA, HEPES 20 mM, extra glutamine, and penicillin-streptomycin. The cells were grown at 37° C. in humidified incubators in an atmosphere of 5% CO2.
(§5) For cell growth experiments, 2-3×10^5 cells/60 mm dish were seeded, and 24 hours later (Day 0), the medium was removed, and fresh medium and the additives were added then and every 48 hours thereafter The compounds of the present invention were added using 100× concentrated stock solutions. At desired times, cell counts in duplicate were performed on a Coulter counter after harvesting the cells with gentle trypsinization.

LS-174T = test: growth of LS-174T cells; assay type: cell-based; conditions: Homo sapiens, LS174T, 72 h; 1 mM, 3 days
Method: as §1, §4, §5

[6] = tested on: R^I and R^II cAMP receptor proteins in breast (MDA-MB-231) and colon (LS-174T) cancer cells; test: R^I and R^II cAMP receptor protein levels in breast and colon cancer lines (FIG. 6); assay type: cell-based, human; conditions: DBcAMP 1 mM
Method: as §1, §2

[7] = tested on: p21 ras protein (MCF-7 cells); test: Western blotting of p21 ras protein in MCF-7 cells; assay type: cell-based, human; conditions: 500 microM
Method: Western blotting of p21 protein was performed as described below. […] V is cell lysate from Ha-MuSV-transformed NIH3T3 clone 13-3B-4. M, marker proteins of known molecular weight.
Cellular proteins present in cell extracts were separated by 12% SDS-PAGE and transferred to nitrocellulose sheets in transfer buffer (25 mM Tris, 192 mM glycine, 20% methanol, pH 7.4). Nitrocellulose sheets were washed and first incubated with 3% bovine serum albumin in NTE-NP40 (50 mM Tris-HCl, pH 7.5, 150 mM NaCl, 2 mM EDTA, 0.1% Nonidet P-40) for three hours at 37° C. and then sequentially incubated with medium containing p21 monoclonal antiserum Y13-259 directed against the Ha-MuSV-encoded p21 for sixteen hours at 4° C., rabbit anti-rat IgG for 2.5 hours in an ice-water bath, and 5×10^5 cpm/ml ^125 I-protein A for one hour in an ice-water bath. The nitrocellulose sheets were air-dried and exposed to Kodak XAR film for 12-36 hours at -20° C. Comparison of the resulting autoradiograms with others in which normal rat serum was substituted for p21 monoclonal antibody permitted identification of p21. To provide a reference p21, cell lysates were prepared from NIH 3T3 clone 13-3B-4 that had been transfected with Ha-MuSV DNA.
The levels of p21 protein are expressed relative to the p21 level in the untreated control cells, which is set equal to 1.0 O.D.

DMBA-1 = test: growth of transplantable DMBA-1 rat mammary carcinoma; assay type: in vivo; conditions: pellet with 10 mg cAMP analogue, day 7
Method: DMBA-1, a variant of primary hormonedependent DMBA tumor,
hormoneindependent and transplantable.
8Cl-cAMP and DBcAMP were given as a 20mg pellet consisting of 10 mg of […]

[8] = tested on: DMBA-induced mammary carcinomas; test: in vivo growth of DMBA-induced mammary carcinomas in rats; set-up: species or system rat; conditions: DBcAMP treatment
Method: […] |DMBA-induced mammary carcinomas in rats […] | 10 mg. cholesterol), was implanted on day 0 and day 14.

[9] = tested on: transplantable DMBA-1 and MNA-2 rat mammary carcinomas; test: short-term assays with transplantable rat mammary carcinomas; assay type: in vivo; conditions: DB-cAMP pellet
Molt-4 = test: growth inhibition of Molt-4; assay type: cell-based, human
[10] = tested on: R^I cAMP receptor protein (Molt-4); test: R^I cAMP receptor protein in Molt-4 leukemic cells; assay type: cell-based, human; conditions: 1 mmol/L, three days
From the text: (§6) M marker proteins of known molecular weight. […] The resulting supernatants were used as cell lysates. […] ND=nondetectable.

c-myc protein = c-myc protein level, Western blotting (FIG. 9B); assay type: cell-based, human; conditions: 1 mmol/L, three days
Method: The cells were grown in suspension culture in RPMI 1640 medium supplemented with 10% fetal bovine serum, penicillin (50 U/ml), streptomycin ([…]), 10 mmol/L HEPES buffer, and extra glutamine. […] Surface antigen analysis of HL-60 cells was performed by flow cytometry using a panel of monoclonal antibodies reactive with either myeloid cells or monocytic cells. Terminal deoxynucleotidyl transferase (TdT) was assayed by an immunoperoxidase method using a TdT fluorescence kit. Western blotting of c-myc protein was performed using c-myc antibody 15206D11 (Scripps Clinic and Research Foundation, LaJolla, Calif.).
as §6

[11] = tested on: hormone-dependent breast cancer lines; conditions: millimolar concentrations; previously reported; cited from earlier work
[12] = tested on: human oat cell lung carcinoma cells; conditions: in vitro; cited from earlier work
[13] = tested on: spindle cell sarcoma with multiple metastasis; conditions: cited from earlier work
[14] = tested on: hormone-dependent mammary tumors / DMBA-induced mammary carcinomas; conditions: cited from earlier work
neuroblastoma cells = conditions: conflicting studies; cited from earlier work
[15] = tested on: cultured human fibroblasts; conditions: cited from earlier work

SMILES: CCCC(=O)Nc1ncnc2c1ncn2[C@@H]1O[C@@H]2COP(=O)(O)O[C@H]2[C@H]1OC(=O)CCC [DBcAMP, N^6,O^2' -dibutyryl-cAMP]
- growth inhibition, in words [1]: no growth inhibition
- R^I relative level [2]: 1.0 ± 0.1
- R^II relative level [3]: 0.07 ± 0.01
- R^I relative level [4]: 0.80 ± 0.10
- R^II relative level [5]: 0.15 ± 0.02
- activity at 1000 µM (MDA-MB-231): 100%
- activity at 1000 µM (LS-174T): 85%
- R^I and R^II receptor levels, in words [6]: remained unchanged; also recorded: did not appreciably affect the R^I or R^II receptor levels
- p21 level, in words [7]: slight reduction in p21 level
- Change in mean tumor volume (DMBA-1): 2.60 cm^3
- Change in mean tumor volume (%) (DMBA-1; none = 100): 99%
- tumor growth, in words [8]: only arrests this tumor growth without producing regression
- sensitivity of tumors [9]: completely resistant
- 50% growth inhibition, in words (Molt-4): 50% growth inhibition could not be obtained
- R^I receptor protein, in words [10]: remained without appreciable change
- c-myc protein level, in words (c-myc protein): did not affect the c-myc protein level
- growth inhibition, hormone-dependent breast cancer lines [11]: growth inhibition only in the hormone-dependent breast cancer lines
- differentiation [12]: differentiated into neurone-like cells
- tumor size ([13]; 3-6 mg/kg i.v. daily over five hours, days 1-9 and 47-56): plateaued and even decreased during both infusion periods
- histology of tumors ([13]; biopsies days 2, 14, 60): evidence of differentiation during the DBcAMP infusion
- cAMP binding and cAMP-dependent protein kinase activity ([14]; cytosol and nuclei, during growth arrest): increase
- estrogen binding ([14]; during growth arrest): estrogen binding decreases
- translated p21 protein ([14]; preceding regression): sharp reduction
- tumor regression ([14]; rat, in vivo): regression of hormone-dependent mammary tumors
- tumorigenicity (neuroblastoma cells): reported to be decreased; also recorded: unaltered
- DNA synthesis ([15]; added during first eight hours after serum addition): subsequent DNA synthesis was not delayed
- DNA synthesis ([15]; added more than eight hours after serum addition): inhibitory

— patent US5902794A (priority 1997, dated 1999)
